Reference: patent US20090233966A1, “Analogues of the Azinomycins as Anti-Tumour Agents and as Prodrugs” (School of Pharmacy, University of London, priority 2005, published 2009)
Where two headings read alike, the source gives them in different places.

Legend:
[1] = tested on: HoeR (Hoechst415 resistant version of U2-OS); experiment: Cytotoxicity in HoeR cell line; format: cell-based, human; settings: for cytotoxicity (in words): initial cytotoxicity studies; for IC50: read-out: IC50 (nM) of compound
Description: (§1) Initial cytotoxicity studies were in the performed U2-OS and HoeR cell lines. The U2-OS is a human osteosarcoma cell line and HoeR is a DNA minor groove binder-resistant variant of this. Both are available from the American Type Culture Collection (ATCC), Dr. Raymon H. 10801 University Boulevard, Manassas, Va., 20110-2209, USA.

[2] = tested on: U2-OS human osteosarcoma cell line; experiment: Cytotoxicity in U2-OS cell line; format: cell-based; settings: for cytotoxicity (in words): initial cytotoxicity studies; for IC50: read-out: IC50 (nM) of compound
Description: as §1

[3] = tested on: wild type CHO cells (absent in CYP3A4); experiment: Cytotoxicity on wild type CHO cells; format: cell-based; settings: FIG. 2(b)
CYP3A4 CHO cells = experiment: Cytotoxicity on CHO cells transfected with CYP3A4; format: cell-based; settings: FIG. 2(b)
NCl 60 cell panel = experiment: NCI 60 cell line panel antitumour activity (whole panel); format: cell-based, human; settings: wide range of human tumour cell lines
Description: Examples 6 and 7 make use of the NCl 60 cell panel. This is an in vitro cell line screening project providing direct support to the National Cancer Institute's USA Developmental Therapeutic Programme for anti cancer discovery. The methodolgy for the cell line's operation is described by Boyd et al in Drug Development Research 1995, 34, 91-109.

| Compound | cytotoxicity (in words) [1] | IC50 [1] [nM] | cytotoxicity (in words) [2] | IC50 [2] [nM] | cytotoxicity (in words) [3] | cytotoxicity (in words) (CYP3A4 CHO cells) | antitumour activity in the NCl 60 cell line panel (in words) (NCl 60 cell panel) | IC50 ([1]; Homo sapiens, U2OS) [nM] | IC50 ([2]; Homo sapiens, U2OS) [nM] |
| --- | --- | --- | --- | --- | --- | --- | --- | --- | --- |
| COc1cc(C(=O)OC(C(N)=O)[C@]2(C)CO2)c2ccccc2c1 (stereo partly drawn) [(2S, 3R)-1] | good activity | 121 | good activity | 120 |  |  |  |  |  |
| COc1cc(C(=O)OC(C(N)=O)[C@]2(C)CO2)c2ccccc2c1 (stereo partly drawn) [(2S, 3S)-1] | good activity | 14 | good activity | 15 | high cytotoxicity | high cytotoxicity |  |  |  |
| COc1cc(C(=O)O[C@H](C(=O)NCCN2CCCC(Cl)C2)C2(C)CO2)c2cccc(C)c2c1 (some centres unmarked) |  |  |  |  |  |  | excellent anti-tumour activity |  |  |
| C=C(C)[C@@H](OC(=O)c1cc(OC)cc2c(C)cccc12)C(N)=O [(2R)-2] | not cytotoxic |  | not cytotoxic |  |  |  |  | > 10000 | > 10000 |
| COc1cc(C(=O)OC(C(N)=O)[C@]2(C)CO2)c2ccccc2c1 (stereo partly drawn) [(2R, 3S)-1] | good activity | 45 | good activity | 40 |  |  |  |  |  |
| COc1cc(C(=O)OC(C(N)=O)[C@]2(C)CO2)c2ccccc2c1 (stereo partly drawn) [(2R, 3R)-1] | good activity | 40 | good activity | 40 |  |  |  |  |  |
